In patent US9439975B2, “Small efficient cell penetrating peptides derived from the scorpion toxin maurocalcine” (Commissariat A L'Energie Atomique Et Aux Energies …, priority 2011, dated 2016):
“Also recorded” adds a separate entry of the source. Square brackets hold non-standard residues; d marks the D form. Primed or numbered codes have the meaning given here. Ends that are not written are not given here. Cy5″ = Cy5 dye, coupled as maleimide to the C-terminal Cys; Abu = CC[C@H](N)C(=O)O; Cy5 = Cy5 label

Tests used:
CHO cells [1] = experiment: Amiloride sensitivity of peptide cell entry (macropinocytosis inhibition), flow cytometry; type: cell-based, Chinese hamster; details: for amiloride-sensitivity of cell penetration: Cy5 as cargo, flow cytometry (FIG. 4); for inhibition of cell penetration by amiloride: 2 hrs, peptide with or without 5 mM amiloride (FIG. 4A)
Description: CHO and F98 cells were incubated with various concentrations of Cy5-labeled peptides in F-12K culture medium without serum at 37° C. for 2 hrs. The cells were then washed with PBS to remove excess extracellular peptide and treated with 1 mg/ml trypsin (INVITROGEN) for 5 min at 37° C. to detach cells from the surface, and centrifuged at 200 g before suspension in PBS. […] For all these experimental conditions, flow cytometry analyses were performed with live cells using a Becton Dickinson flow cytometer LSR II or an Accuri® flow cytometer (BD BIOSCIENCES). Data were obtained and analyzed using FCS express software (DE NOVO) or Accuri® proprietary software CFlow sampler. Live cells were gated by forward/side scattering from a total of 10,000 events.

CHO cells [2] = experiment: Flow cytometry of cell penetration of Cy5-labeled peptides in CHO cells; type: cell-based, Chinese hamster; details: for dose-dependent cell penetration: concentrations up to 33 μM; for cell penetration (fluorescence accumulation within cells): 2 hrs incubation, 3 μM peptide, trypsin treatment
Description: Each peptide was labeled with Cy5 according to the manufacturer's protocol (GE HEALTHCARE). Peptides were dissolved at 1 mg/ml in 0.1 M Na2CO3 buffer, pH 9.3. 300 μl of the solubilized peptides were added to Cy5-maleimide containing tubes. The mixtures were incubated during 2 hrs at room temperature and then purified by HPLC using an analytical Vydac C18 column. Elution of the Cy5-labeled peptides was performed with a 10-60% acetonitrile linear gradient containing 0.1% trifluoroacetic acid. The pure peak fractions were lyophilized and peptides quantified by UV spectrophotometer at 649 nm.
(§1) Chinese hamster ovary (CHO) and F98 rat glioma cell lines (from ATCC) were maintained at 37° C. in 5% CO2 in F-12K nutrient medium (INVITROGEN) supplemented with 10% (v/v) heat-inactivated fetal bovine serum (INVITROGEN) and 10,000 units/ml streptomycine and penicillin (INVITROGEN) for the CHO cells, and 2% heat-inactivated fetal bovine serum and 100 units/ml streptomycine and penicillin for the F98 cells
(§2) CHO and F98 cells were incubated with various concentrations of Cy5-labeled peptides in F-12K culture medium without serum at 37° C. for 2 hrs. The cells were then washed with PBS to remove excess extracellular peptide and treated with 1 mg/ml trypsin (INVITROGEN) for 5 min at 37° C. to detach cells from the surface, and centrifuged at 200 g before suspension in PBS. For experiments with the macropinocytosis inhibitor, amiloride, CHO cells were initially washed with F-12K and preincubated for 30 min at 37° C. with 1 mM amiloride (SIGMA). The cells were then incubated for 2 hrs at 37° C. with 1 μM of the Cy5-MCa analogues. For all these experimental conditions, flow cytometry analyses were performed with live cells using a Becton Dickinson flow cytometer LSR II or an Accuri® flow cytometer (BD BIOSCIENCES). Data were obtained and analyzed using FCS express software (DE NOVO) or Accuri® proprietary software CFlow sampler. Live cells were gated by forward/side scattering from a total of 10,000 events.

CHO cells [3] = experiment: Confocal microscopy of subcellular localization of Cy5-labeled peptides in living CHO cells (rhodamine-concanavalin A membrane stain); type: cell-based, Chinese hamster; details: 2 hrs; for Cy5-positive pixels rhodamine-positive (colocalization with the plasma membrane indicator): FIG. 3; for Rhodamine-positive staining also Cy5-positive (pixels): Cy5/rhodamine colocalization
Description: (§3) For analysis of the subcellular localization of MCa-Cy5 analogues in living cells, cell cultures were incubated with the fluorescent peptides for 2 hrs, and then washed with phosphate-buffered saline (PBS) alone. The plasma membrane was stained with 5 μg/ml rhodamine-conjugated concanavalin A (MOLECULAR PROBES) for 5 min. Cells were washed once more. Live cells were then immediately analyzed by confocal laser scanning microscopy using a Leica TCS-SPE operating system. Rhodamine (580 nm) and Cy5 (670 nm) were sequentially excited and emission fluorescence were collected in z-confocal planes of […] steps.

F98 rat glioma cell line = experiment: Flow cytometry of dose-dependent cell penetration in F98 cells; type: cell-based; details: Cy5-labeled peptides
Description: as §1, §2
(§4) Cy5-labeled peptides derived from MCaUF1-9 were synthesized and assayed by confocal microscopy or flow cytometry as described in example 1.

F98 cell line = experiment: Confocal microscopy of peptide penetration in F98 cell line, comparison with Tat; type: cell-based, rat
Description: as §3, §4

[4] = molecular target: ryanodine receptor type 1 (RyR1) (Oryctolagus cuniculus, UniProt P11716); details: earlier reports; cited from earlier work
ryanodine receptor type 1 (RyR1), sequence (P11716 whole entry): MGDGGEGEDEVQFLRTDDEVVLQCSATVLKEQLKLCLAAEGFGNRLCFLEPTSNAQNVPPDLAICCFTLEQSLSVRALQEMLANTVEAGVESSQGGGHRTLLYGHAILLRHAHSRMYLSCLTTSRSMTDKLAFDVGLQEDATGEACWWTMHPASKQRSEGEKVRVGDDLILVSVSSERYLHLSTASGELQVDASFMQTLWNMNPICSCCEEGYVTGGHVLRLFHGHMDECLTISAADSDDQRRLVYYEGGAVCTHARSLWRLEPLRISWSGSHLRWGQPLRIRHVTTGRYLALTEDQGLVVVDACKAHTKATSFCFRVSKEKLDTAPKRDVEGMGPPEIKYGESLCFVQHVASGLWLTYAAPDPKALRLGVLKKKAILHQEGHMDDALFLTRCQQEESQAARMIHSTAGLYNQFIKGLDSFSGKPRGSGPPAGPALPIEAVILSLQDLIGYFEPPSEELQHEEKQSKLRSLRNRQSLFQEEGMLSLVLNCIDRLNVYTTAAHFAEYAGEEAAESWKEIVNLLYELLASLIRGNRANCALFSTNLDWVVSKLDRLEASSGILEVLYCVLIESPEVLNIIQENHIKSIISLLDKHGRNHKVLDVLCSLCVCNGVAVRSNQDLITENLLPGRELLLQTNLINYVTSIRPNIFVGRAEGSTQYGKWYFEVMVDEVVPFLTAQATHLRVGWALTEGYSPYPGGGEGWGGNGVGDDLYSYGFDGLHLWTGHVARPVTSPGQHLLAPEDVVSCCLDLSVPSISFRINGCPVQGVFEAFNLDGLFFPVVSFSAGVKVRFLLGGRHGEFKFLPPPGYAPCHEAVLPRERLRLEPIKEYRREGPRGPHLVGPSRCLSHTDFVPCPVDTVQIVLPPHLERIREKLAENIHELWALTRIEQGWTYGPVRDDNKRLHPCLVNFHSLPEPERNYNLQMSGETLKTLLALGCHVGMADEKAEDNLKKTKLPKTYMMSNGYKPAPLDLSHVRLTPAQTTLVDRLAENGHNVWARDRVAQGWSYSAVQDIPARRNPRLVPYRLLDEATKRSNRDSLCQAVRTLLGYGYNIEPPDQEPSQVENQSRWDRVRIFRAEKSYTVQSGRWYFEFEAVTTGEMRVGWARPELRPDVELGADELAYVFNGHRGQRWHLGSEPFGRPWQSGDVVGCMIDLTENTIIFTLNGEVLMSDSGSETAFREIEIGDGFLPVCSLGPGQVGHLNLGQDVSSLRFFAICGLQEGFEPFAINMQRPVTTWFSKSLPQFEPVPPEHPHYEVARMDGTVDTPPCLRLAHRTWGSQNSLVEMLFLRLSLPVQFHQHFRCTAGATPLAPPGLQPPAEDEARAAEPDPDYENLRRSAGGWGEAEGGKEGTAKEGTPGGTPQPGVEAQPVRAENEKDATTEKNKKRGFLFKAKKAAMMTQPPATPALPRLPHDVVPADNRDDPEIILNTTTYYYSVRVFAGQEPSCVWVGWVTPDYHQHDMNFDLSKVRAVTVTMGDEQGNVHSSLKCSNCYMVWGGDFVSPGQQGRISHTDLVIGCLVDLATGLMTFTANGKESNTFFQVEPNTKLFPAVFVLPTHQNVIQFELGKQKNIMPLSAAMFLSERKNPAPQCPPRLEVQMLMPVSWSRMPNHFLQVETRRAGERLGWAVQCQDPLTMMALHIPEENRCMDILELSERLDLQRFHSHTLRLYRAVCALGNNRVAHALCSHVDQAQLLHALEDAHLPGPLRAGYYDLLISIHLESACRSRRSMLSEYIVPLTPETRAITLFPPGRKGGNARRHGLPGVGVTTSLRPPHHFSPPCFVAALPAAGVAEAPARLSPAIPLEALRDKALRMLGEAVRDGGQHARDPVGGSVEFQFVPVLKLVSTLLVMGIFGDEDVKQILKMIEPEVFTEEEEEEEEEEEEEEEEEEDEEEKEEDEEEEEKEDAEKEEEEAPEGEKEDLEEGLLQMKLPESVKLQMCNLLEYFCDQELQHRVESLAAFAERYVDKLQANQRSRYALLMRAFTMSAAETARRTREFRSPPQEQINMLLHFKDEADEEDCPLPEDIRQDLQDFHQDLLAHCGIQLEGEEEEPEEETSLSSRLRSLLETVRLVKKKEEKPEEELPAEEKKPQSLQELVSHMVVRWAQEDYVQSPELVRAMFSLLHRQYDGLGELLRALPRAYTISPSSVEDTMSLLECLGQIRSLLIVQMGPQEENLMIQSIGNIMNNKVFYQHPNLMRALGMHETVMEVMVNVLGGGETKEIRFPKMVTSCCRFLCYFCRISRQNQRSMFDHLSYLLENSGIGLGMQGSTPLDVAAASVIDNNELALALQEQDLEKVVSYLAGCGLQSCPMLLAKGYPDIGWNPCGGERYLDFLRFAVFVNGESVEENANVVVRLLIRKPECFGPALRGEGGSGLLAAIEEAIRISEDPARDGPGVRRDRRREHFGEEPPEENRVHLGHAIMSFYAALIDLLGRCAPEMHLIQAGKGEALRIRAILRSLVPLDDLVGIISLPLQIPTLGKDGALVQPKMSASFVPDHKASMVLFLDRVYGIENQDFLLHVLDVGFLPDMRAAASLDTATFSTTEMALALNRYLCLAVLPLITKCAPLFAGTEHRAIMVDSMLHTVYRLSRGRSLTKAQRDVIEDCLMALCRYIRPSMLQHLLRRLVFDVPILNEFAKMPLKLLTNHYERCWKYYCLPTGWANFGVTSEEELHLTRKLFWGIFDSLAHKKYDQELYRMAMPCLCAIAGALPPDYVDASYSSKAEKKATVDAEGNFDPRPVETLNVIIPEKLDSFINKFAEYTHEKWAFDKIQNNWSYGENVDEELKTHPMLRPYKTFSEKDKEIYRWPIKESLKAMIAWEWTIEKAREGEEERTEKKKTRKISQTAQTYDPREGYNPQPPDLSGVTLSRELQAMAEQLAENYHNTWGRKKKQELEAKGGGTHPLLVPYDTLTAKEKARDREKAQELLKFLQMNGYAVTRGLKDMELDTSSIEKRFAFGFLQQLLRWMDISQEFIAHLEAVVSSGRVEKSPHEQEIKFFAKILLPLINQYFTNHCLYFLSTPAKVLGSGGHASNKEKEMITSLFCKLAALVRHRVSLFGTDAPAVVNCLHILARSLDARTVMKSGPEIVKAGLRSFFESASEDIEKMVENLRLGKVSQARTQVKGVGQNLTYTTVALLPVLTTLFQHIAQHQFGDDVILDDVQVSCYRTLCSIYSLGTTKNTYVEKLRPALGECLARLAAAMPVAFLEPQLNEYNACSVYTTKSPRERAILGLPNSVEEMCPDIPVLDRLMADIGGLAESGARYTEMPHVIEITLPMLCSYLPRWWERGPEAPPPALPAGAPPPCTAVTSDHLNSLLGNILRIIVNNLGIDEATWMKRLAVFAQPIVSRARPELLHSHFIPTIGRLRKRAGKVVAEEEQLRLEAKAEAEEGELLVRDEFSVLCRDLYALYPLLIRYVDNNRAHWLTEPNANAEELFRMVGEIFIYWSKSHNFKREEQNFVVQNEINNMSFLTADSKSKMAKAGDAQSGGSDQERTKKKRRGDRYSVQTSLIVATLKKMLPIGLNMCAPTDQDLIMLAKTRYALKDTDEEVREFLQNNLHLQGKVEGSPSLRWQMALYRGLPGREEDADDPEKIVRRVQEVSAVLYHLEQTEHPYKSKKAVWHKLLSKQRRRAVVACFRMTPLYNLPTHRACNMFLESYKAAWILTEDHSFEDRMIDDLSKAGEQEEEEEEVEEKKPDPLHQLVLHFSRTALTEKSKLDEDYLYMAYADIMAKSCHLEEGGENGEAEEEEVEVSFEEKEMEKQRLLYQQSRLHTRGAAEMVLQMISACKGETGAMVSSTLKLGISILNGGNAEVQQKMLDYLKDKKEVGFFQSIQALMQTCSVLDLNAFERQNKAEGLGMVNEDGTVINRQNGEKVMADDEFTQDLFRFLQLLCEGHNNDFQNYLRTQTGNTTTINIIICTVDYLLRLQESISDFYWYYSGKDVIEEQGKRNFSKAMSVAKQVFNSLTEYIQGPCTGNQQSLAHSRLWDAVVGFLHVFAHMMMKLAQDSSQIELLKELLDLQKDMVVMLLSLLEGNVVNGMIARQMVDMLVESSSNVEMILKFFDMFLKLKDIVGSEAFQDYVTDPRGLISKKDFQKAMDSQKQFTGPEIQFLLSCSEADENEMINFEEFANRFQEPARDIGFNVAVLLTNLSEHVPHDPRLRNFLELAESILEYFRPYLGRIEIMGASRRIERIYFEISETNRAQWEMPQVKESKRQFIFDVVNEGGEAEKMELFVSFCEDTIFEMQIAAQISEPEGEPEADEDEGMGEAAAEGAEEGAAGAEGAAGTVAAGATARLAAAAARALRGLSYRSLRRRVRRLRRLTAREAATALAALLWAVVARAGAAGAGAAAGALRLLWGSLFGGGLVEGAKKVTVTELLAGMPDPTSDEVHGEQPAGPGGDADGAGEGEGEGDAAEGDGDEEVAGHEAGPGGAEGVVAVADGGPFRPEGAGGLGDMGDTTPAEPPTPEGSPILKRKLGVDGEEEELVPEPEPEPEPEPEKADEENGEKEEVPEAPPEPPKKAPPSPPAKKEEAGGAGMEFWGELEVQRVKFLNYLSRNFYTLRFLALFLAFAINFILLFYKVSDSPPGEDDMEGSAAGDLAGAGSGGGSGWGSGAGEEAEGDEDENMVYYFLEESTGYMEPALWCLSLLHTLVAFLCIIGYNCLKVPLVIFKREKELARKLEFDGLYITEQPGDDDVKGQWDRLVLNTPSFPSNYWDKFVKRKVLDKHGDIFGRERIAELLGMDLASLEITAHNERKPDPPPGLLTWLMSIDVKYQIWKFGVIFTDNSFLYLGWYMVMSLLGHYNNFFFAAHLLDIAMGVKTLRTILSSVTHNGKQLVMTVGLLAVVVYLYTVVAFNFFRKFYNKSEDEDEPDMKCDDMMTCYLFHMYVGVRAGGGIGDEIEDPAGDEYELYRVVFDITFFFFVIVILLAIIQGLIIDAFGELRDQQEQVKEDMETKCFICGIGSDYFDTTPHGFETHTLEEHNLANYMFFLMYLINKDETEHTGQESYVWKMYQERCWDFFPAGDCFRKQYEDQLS

cells = details: streptavidine as cargo, earlier studies; cited from earlier work

## MCaUF14-25-C-Cy5: MCaUF14-25-C (SEQ ID NO: 139) labeled with Cy5 (KD[Abu][Abu]SKK[Abu]KRRGC(Cy5″))
CHO cells [1]
  amiloride-sensitivity of cell penetration: higher amiloride-sensitivity than MCaUF1-33-C-Cy5
CHO cells [2]; 2 hrs
  dose-dependent cell penetration: yields the greatest fluorescence accumulation
CHO cells [3]; confocal microscopy
  intracellular / plasma membrane distribution: sub-plasma membrane rim localization was more evident

## MCaUF8-33-C-Cy5: MCaUF8-33-C (SEQ ID NO: 141) labeled with Cy5 (KL[Abu]KENKD[Abu][Abu]SKK[Abu]KRRGTNIEKR[Abu]RC(Cy5″))
CHO cells [2]; 2 hrs
  dose-dependent cell penetration: did not show any sign of saturation; also recorded: no saturation of cell entry
CHO cells [3]; confocal microscopy
  intracellular / plasma membrane distribution: dots appear at higher concentrations within one pole of the cell

## MCaUF1-9-C-Cy5: MCaUF1-9-C (SEQ ID NO: 136, GDaLPHLKLC) labeled with Cy5 (GD[Abu]LPHLKLC(Cy5″))
CHO cells [2]; 2 hrs
  concentration with detectable cell penetration: 10 nM
  dose-dependent cell penetration: best performing peptide for cell penetration at low concentrations
CHO cells [3]
  Cy5-positive pixels rhodamine-positive (colocalization with the plasma membrane indicator): higher values of colocalization
CHO cells [3]; confocal microscopy
  intracellular / plasma membrane distribution: dots appear at higher concentrations within one pole of the cell

## KDalKHLQR (KD[Abu]IKHLQR) [HadUF3-11]
F98 rat glioma cell line
  cell penetration (CPP efficiency): ones of the best performing CPPs
F98 rat glioma cell line; listed as HadUF3-9(Abu5)
  cell penetration (CPP efficiency): perform better as CPP than the maurocalcine derived peptide MCaUF1-9(Abu3)

## MCaUF1-33-C-Cy5: MCaUF1-33-C (SEQ ID NO: 140) labeled with Cy5 on the C-terminal Cys (GD[Abu]LPHLKL[Abu]KENKD[Abu][Abu]SKK[Abu]KRRGTNIEKR[Abu]RC(Cy5))
CHO cells [1]
  inhibition of cell penetration by amiloride: 19.6%
CHO cells [2]
  cell penetration (fluorescence accumulation within cells): penetrated efficiently within CHO cells
CHO cells [2]; 2 hrs
  dose-dependent cell penetration: least-performing cell penetrating peptide
CHO cells [3]
  Cy5-positive pixels rhodamine-positive (colocalization with the plasma membrane indicator): 10.1±2.6%
CHO cells [3]; confocal microscopy
  degree of accumulated cell fluorescence: penetrate the least

## GDaLPHLKLaKENKDC (GD[Abu]LPHLKL[Abu]KENKDC) [MCaUF1-15-C]
CHO cells [2]
  cell penetration (fluorescence accumulation within cells): showed CPP properties

## MCaUF22-33-C-Cy5: MCaUF22-33-C (SEQ ID NO: 145) labeled with Cy5 (KRRGTNIEKR[Abu]RC(Cy5″))
CHO cells [3]
  Rhodamine-positive staining also Cy5-positive (pixels): best performing
CHO cells [3]; confocal microscopy
  intracellular / plasma membrane distribution: direct plasma membrane labeling

## SEKDalKHLQR (SEKD[Abu]IKHLQR) [HadUF1-11]
F98 rat glioma cell line
  cell penetration (CPP efficiency): ones of the best performing CPPs
F98 rat glioma cell line; listed as HadUF1-11(Abu5)
  cell penetration (CPP efficiency): perform better as CPP than the maurocalcine derived peptide MCaUF1-9(Abu3)
F98 cell line; 1 μM peptide
  penetration compared with 3 μM Tat: proved better CPP than Tat at 3 μM

## MCaUF14-33-C-Cy5: MCaUF14-33-C (SEQ ID NO: 143) labeled with Cy5 (KD[Abu][Abu]SKK[Abu]KRRGTNIEKR[Abu]RC(Cy5″))
CHO cells [3]
  Rhodamine-positive staining also Cy5-positive (pixels): best performing
  Cy5-positive pixels rhodamine-positive (colocalization with the plasma membrane indicator): higher values of colocalization

## MCaUF11-33-C-Cy5: MCaUF11-33-C (SEQ ID NO: 142) labeled with Cy5 (KENKD[Abu][Abu]SKK[Abu]KRRGTNIEKR[Abu]RC(Cy5″))
CHO cells [1]
  amiloride-sensitivity of cell penetration: higher amiloride-sensitivity than MCaUF1-33-C-Cy5
CHO cells [3]
  Cy5-positive pixels rhodamine-positive (colocalization with the plasma membrane indicator): 21.3±2.6%
CHO cells [3]; confocal microscopy
  intracellular / plasma membrane distribution: dots appear at higher concentrations within one pole of the cell

## MCaUF20-33-C-Cy5: MCaUF20-33-C (SEQ ID NO: 144) labeled with Cy5 (K[Abu]KRRGTNIEKR[Abu]RC(Cy5″))
CHO cells [1]
  amiloride-sensitivity of cell penetration: enhance rather than inhibit the cell penetration
CHO cells [3]
  Rhodamine-positive staining also Cy5-positive (pixels): best performing
CHO cells [3]; confocal microscopy
  intracellular / plasma membrane distribution: Diffuse membrane labeling

## GTNIEKRaRC (GTNIEKR[Abu]RC) [MCaUF25-33-C]
CHO cells [2]
  cell penetration (fluorescence accumulation within cells): have also CPP properties

## MCaUF25-33-C-Cy5: MCaUF25-33-C (SEQ ID NO: 146) labeled with Cy5 (GTNIEKR[Abu]RC(Cy5″))
CHO cells [1]
  amiloride-sensitivity of cell penetration: higher amiloride-sensitivity than MCaUF1-33-C-Cy5
CHO cells [3]; confocal microscopy
  intracellular / plasma membrane distribution: dots appear at higher concentrations within one pole of the cell; also recorded: Diffuse membrane labeling

## SKKaKRRGTNIEKRaR (SKK[Abu]KRRGTNIEKR[Abu]R) [MCaUF18-33]
CHO cells [1]
  amiloride-sensitivity of cell penetration: macropinocytosis entry-independent

## MCaUF1-20-C-Cy5: MCaUF1-20-C (SEQ ID NO: 134) labeled with Cy5 (GD[Abu]LPHLKL[Abu]KENKD[Abu][Abu]SKKC(Cy5″))
CHO cells [2]; 2 hrs
  dose-dependent cell penetration: performing as well as MCaUF8-33-C-Cy5
CHO cells [3]
  Cy5-positive pixels rhodamine-positive (colocalization with the plasma membrane indicator): 30.4±1.4%

## GDaLPHLKL (GD[Abu]LPHLKL) [MCaUF1-9]
CHO cells [2]; 2 hrs
  dose-dependent cell penetration: penetrates better at low concentration
F98 rat glioma cell line
  cell penetration (CPP efficiency): ones of the best performing CPPs
F98 cell line; 3 μM peptide
  penetration compared with 3 μM Tat: proved better CPP than Tat at 3 μM

## aLPHLKL ([Abu]LPHLKL) [MCaUF3-9]
F98 rat glioma cell line
  cell penetration (CPP efficiency): ones of the best performing CPPs
F98 rat glioma cell line; listed as MCaUF3-9(Abu3)
  cell penetration (CPP efficiency): efficient CPP
F98 cell line; 1 μM peptide
  penetration compared with 3 μM Tat: proved better CPP than Tat at 3 μM

## GDaWPHLKL (GD[Abu]WPHLKL) [MCaUF1-9(Abu3-W4)]
F98 cell line; 1 μM peptide
  penetration compared with 3 μM Tat: proved better CPP than Tat at 3 μM

## KDaaSKKaKRRG (KD[Abu][Abu]SKK[Abu]KRRG) [MCaUF14-25]
CHO cells [2]; 2 hrs
  dose-dependent cell penetration: yields the greatest cell entry of the dye

## GDaLPHLKLC (GD[Abu]LPHLKLC) [MCaUF1-9-C]
CHO cells [2]
  cell penetration (fluorescence accumulation within cells): showed CPP properties; also recorded: better CPP than MCaUF1-15-C

## MCaUF18-33-C-Cy5: MCaUF18-33-C (SEQ ID NO: 137) labeled with Cy5 (SKK[Abu]KRRGTNIEKR[Abu]RC(Cy5″))
CHO cells [1]
  amiloride-sensitivity of cell penetration: enhance rather than inhibit the cell penetration
CHO cells [2]; 2 hrs
  dose-dependent cell penetration: performed drastically better than the other truncated peptides
CHO cells [3]
  Rhodamine-positive staining also Cy5-positive (pixels): best performing

## MCaUF1-33: unfolded full-length MCa, six Cys replaced by 2-aminobutyric acid (Abu) (GD[Abu]LPHLKL[Abu]KENKD[Abu][Abu]SKK[Abu]KRRGTNIEKR[Abu]R; not fully specified (residue 33))
[4]
  pharmacological action on / interaction with RyR1: unable to interact with MCa's target, the ryanodine receptor RyR1
cells
  amiloride sensitivity of cell entry: largely sensitive to amiloride

## GDWLPHLKL (MCa1-9, C3W variant) [MCaUF1-9(W3)]
F98 rat glioma cell line
  cell penetration (CPP efficiency): ones of the best performing CPPs
F98 cell line; 1 μM peptide
  penetration compared with 3 μM Tat: proved better CPP than Tat at 3 μM

## MCaUF1-15-C-Cy5: MCaUF1-15-C (SEQ ID NO: 135) labeled with Cy5 (GD[Abu]LPHLKL[Abu]KENKDC(Cy5″))
CHO cells [1]
  inhibition of cell penetration by amiloride: 39%
  amiloride-sensitivity of cell penetration: higher amiloride-sensitivity than MCaUF1-33-C-Cy5
